{"source": "patent US5604214A", "about": "“Reduction of boar odor in meat” (Pfizer Inc., priority 1993, dated 1997)", "system": "boar salivary gland steroid 5-α-reductase (boar 4-ene-5-α-reductase enzyme)", "assay": "Boar steroid 5α-reductase enzyme activity and inhibitor potency assay ([14C]testosterone conversion, boar salivary gland microsomes)", "assay_type": "biochemical", "details": "500 nM compound, 37° C., 30 minutes", "protocol": "Microsomal preparations from boar salivary glands were prepared by the protocol desbribed by Liang, et al. for human prostatic microsomal 5-α-reductase.\nAssay for enzyme activity and inhibitor potency.\nA constant amount of [^14 C]testosterone (50 to 55 mCi/mmol) in ethanol and varying amounts of potential inhibitor (or no inhibitor i.e. control) in ethanol were deposited in test tubes and concentrated to dryness in vacuo. Assays for boar steroid 5α-reductase enzyme were conducted with a sample of the boar salivary gland 5-α-reductase in 50 mM phosphate buffer, pH 7.5 or in 50 mM citrate buffer at pH 5.0. To each tube was added buffer, 40 μl of microsomal preparation from boar salivary glands (hereinafter boar salivary gland steroid 5-α-reductase) and 20 μl of 20 mM NADPH to a final volume of 0.5 mL.\nAfter incubating the solution at 37° C. for 30 minutes the reaction was quenched by the addition of 4 mL ethyl acetate and 0.25 μmol each of testosterone, 5α-dihydrotestosterone, androstanediol, and androstanedione as carriers. The organic layer was removed to a second test tube and evaporated to dryness in a Speed Vac. The residue was dissolved in 40 μL chloroform, spotted on an individual lane of a 20×20 cm prechannelled silica gel TLC plate (Si 250F-PA, Baker Chemical) and developed twice with acetone:chloroform (1:9). The radiochemical content in the bands of the substrate and the products was determined with a BIOSCAN Imaging Scanner (Bioscan Inc., Washington, D.C.). The percent of recovered radiolabel converted to product was calculated, from which enzyme activity was determined. All incubations were conducted such that no more than 20% of the substrate (testosterone) was consumed.\nBy following the above procedure in the absence of an inhibitor (i.e. control) a significant formation of 5-α-dihydrotestosterone, and the androstanediols occurred which indicated the presence of a high level of 4-ene-5-α-reductase enzyme activity in the microsomes prepared from the salivary glands of the boar.", "key": {"[1]": {"details": "pH 7.5 (50 mM phosphate buffer)"}}, "data": [{"molecule": "CC(C)(C)NC(=O)[C@H]1CC[C@H]2[C@@H]3CC[C@H]4NC(=O)C=C[C@]4(C)[C@H]3CC[C@]12C", "note": "[17β-(N-t-butylcarbamoyl)-4-aza-5α-androst-1-en-3-one]", "values": [{"measurement": "inhibition of the boar 5-α-reductase enzyme (vs. control)", "setting": "[1]", "result": 50, "unit": "%"}]}, {"molecule": "CC(C)(C)NC(=O)[C@H]1CC[C@H]2[C@@H]3CC=C4C=C(C(=O)O)CC[C@]4(C)[C@H]3CC[C@]12C", "note": "[17β-(N-t-butylcarboxamide)-androst-3,5-diene-3-carboxylic acid]", "values": [{"measurement": "inhibition of the boar 5-α-reductase enzyme (vs. control)", "setting": "[1]", "result": 50, "unit": "%"}]}, {"molecule": "CC(C)(C)NC(=O)[C@H]1CC[C@H]2[C@@H]3CCc4cc(C(=O)O)ccc4[C@H]3CC[C@]12C", "note": "[17β-(N-t-butylcarboxamide)-estr-1,3,5(10)triene-3-carboxylic acid]", "values": [{"measurement": "inhibition of the boar 5-α-reductase enzyme (vs. control)", "setting": "pH 5 (50 mM citrate buffer)", "result": "~65", "unit": "%"}, {"measurement": "inhibition of the boar 5-α-reductase enzyme (vs. control)", "setting": "[1]", "result": 80, "unit": "%"}]}]}
